Molecules are shown by their SMILES.

In general, Inhibition refers to the change of the read-out against control, counted positive when it falls. In general, IC50 refers to the midpoint of a concentration-inhibition curve. In general, inhibition refers to the share of the control response that was lost under treatment.

One experiment has as its system RAW264.7. Kind of experiment: Tested for the inhibition of NO production in RAW 264.7 cells. Type of experiment: functional, Mus musculus.
The next experiment deals with L929. Kind of experiment: Relative cytotoxicity measured as inhibition of LPS induced TNF alpha production in L929 cells at 10 uM. The arrangement: scale not given: the % may be the effect or the level left. Type of experiment: functional, Mus musculus.
Experiment [1] is described as follows: Tested for the inhibition of nitric oxide syntheses in murine macrophage cell line RAW 264.7. Type of experiment: cell-based.
A further experiment concerns RAW. Kind of experiment: Tested for the inhibition of nitric oxide syntheses in murine macrophage cell line RAW 264.7 at a concentration of 30 uM. Type of experiment: cell-based.

On to `N=C(N)NN` [PIMAGEDINE], for which the Inhibition in the experiment on RAW264.7 turned out to be 79%.

Take `COc1cc(OC)c([C@@H]2[C@H](C)[C@@H](C)[C@H]2c2cc(OC)c(OC)cc2OC)cc1OC` [MAGNOSALIN]: the Activity with L929 is listed as 84%. Besides, the IC50 in experiment [1] was determined as 53.5 µM.

Take `COc1cc(OC)c([C@@H]2[C@@H](C)[C@H](C)[C@H]2c2cc(OC)c(OC)cc2OC)cc1OC`: the Activity in the experiment on L929 came out at 26%. In experiment [1], this molecule displayed a half-maximal inhibitory concentration (IC50) of 5.9 µM. In the experiment with RAW, this molecule came in with an inhibition of 17%.

These data come from ChEMBL document CHEMBL1135074, “Two neolignans from Perilla frutescens and their inhibition of nitric oxide synthase and tumor necrosis factor-alpha expression in murine macrophage cell line RAW 264.7” (Bioorg Med Chem Lett, 2002).
